This is an account of results in ChEMBL document CHEMBL5465560, “Selectivity Literature for EUbOPEN Chemogenomic Library” (2024).

For assay [1], the target named is Phosphatidylinositol 4-kinase beta (Homo sapiens, UniProt Q9UBF8). Nature of the assay: Selectivity interaction (ActivX KiNativ screen (ex vivo kinase selectivity in human PBMCs)) EUB0001619a PI4KB. The class given is cell-based. As to conditions: PBMC, at 1 µM.
Assay [2] deals with Tyrosine-protein kinase ABL1 (Homo sapiens, UniProt P00519). Briefly: Selectivity interaction (ActivX KiNativ screen (ex vivo kinase selectivity in human PBMCs)) EUB0001619a ABL1. The class given is cell-based. As to conditions: PBMC, at 1 µM.
Assay [3] concerns the target RAC-alpha serine/threonine-protein kinase (Homo sapiens, UniProt P31749). Nature of the assay: Selectivity interaction (KinomeScan (DiscoverX)) EUB0000666a AKT1. The conditions noted are these: at 10 µM.
In assay [4] the target is T1, Receptor-interacting serine/threonine-protein kinase 1 (Homo sapiens) (UniProt Q13546).
T1 sequence (whole entry): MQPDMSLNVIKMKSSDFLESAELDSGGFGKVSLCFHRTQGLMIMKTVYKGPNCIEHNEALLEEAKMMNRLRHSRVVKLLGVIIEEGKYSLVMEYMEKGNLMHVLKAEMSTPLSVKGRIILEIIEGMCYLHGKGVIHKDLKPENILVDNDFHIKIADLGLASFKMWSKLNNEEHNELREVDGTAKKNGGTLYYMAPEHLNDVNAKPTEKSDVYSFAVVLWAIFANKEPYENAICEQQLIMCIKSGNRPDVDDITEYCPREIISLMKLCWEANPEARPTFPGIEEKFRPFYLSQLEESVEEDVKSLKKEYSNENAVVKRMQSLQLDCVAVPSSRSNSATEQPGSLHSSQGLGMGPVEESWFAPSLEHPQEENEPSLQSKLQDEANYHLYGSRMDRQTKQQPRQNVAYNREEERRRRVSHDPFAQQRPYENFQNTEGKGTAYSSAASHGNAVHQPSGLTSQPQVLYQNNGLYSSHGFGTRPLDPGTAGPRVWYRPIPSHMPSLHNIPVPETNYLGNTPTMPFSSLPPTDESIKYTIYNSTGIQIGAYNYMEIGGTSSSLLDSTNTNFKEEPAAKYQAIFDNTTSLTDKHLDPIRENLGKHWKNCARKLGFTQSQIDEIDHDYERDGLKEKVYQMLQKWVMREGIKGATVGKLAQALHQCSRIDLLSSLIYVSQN
Nature of the assay: Selectivity interaction (KinomeScan (DiscoverX)) EUB0000607a RIPK1. As to conditions: at 10 µM.

The target of assay [5] is T2, Serine/threonine-protein kinase Nek3 (Homo sapiens) (UniProt P51956).
T2 sequence (whole entry): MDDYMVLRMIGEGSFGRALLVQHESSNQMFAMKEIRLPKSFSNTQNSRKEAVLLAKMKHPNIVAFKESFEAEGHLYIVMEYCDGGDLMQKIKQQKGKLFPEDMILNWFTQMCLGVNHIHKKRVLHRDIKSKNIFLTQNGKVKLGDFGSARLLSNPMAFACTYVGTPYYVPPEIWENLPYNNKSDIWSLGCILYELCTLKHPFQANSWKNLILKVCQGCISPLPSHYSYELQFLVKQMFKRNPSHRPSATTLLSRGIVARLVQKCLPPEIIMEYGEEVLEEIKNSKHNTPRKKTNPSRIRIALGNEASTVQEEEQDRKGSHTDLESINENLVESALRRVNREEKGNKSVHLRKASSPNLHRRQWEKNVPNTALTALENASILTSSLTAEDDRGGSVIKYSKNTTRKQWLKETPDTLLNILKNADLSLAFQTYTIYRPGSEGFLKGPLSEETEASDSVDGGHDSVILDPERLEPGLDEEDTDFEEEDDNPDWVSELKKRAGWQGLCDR
Nature of the assay: Selectivity interaction (KinomeScan (DiscoverX)) EUB0000607a NEK3. As to conditions: at 10 µM.

Assay [6] relates to Tyrosine-protein kinase ABL1 (Homo sapiens), P00519 [Q252H]. As to conditions: at 10 µM.
For assay [7], the target named is Mitogen-activated protein kinase kinase kinase kinase 4 (Homo sapiens, UniProt O95819). As to conditions: at 10 µM.
Mitogen-activated protein kinase kinase kinase kinase 4, sequence (O95819 2-1239 limits assumed): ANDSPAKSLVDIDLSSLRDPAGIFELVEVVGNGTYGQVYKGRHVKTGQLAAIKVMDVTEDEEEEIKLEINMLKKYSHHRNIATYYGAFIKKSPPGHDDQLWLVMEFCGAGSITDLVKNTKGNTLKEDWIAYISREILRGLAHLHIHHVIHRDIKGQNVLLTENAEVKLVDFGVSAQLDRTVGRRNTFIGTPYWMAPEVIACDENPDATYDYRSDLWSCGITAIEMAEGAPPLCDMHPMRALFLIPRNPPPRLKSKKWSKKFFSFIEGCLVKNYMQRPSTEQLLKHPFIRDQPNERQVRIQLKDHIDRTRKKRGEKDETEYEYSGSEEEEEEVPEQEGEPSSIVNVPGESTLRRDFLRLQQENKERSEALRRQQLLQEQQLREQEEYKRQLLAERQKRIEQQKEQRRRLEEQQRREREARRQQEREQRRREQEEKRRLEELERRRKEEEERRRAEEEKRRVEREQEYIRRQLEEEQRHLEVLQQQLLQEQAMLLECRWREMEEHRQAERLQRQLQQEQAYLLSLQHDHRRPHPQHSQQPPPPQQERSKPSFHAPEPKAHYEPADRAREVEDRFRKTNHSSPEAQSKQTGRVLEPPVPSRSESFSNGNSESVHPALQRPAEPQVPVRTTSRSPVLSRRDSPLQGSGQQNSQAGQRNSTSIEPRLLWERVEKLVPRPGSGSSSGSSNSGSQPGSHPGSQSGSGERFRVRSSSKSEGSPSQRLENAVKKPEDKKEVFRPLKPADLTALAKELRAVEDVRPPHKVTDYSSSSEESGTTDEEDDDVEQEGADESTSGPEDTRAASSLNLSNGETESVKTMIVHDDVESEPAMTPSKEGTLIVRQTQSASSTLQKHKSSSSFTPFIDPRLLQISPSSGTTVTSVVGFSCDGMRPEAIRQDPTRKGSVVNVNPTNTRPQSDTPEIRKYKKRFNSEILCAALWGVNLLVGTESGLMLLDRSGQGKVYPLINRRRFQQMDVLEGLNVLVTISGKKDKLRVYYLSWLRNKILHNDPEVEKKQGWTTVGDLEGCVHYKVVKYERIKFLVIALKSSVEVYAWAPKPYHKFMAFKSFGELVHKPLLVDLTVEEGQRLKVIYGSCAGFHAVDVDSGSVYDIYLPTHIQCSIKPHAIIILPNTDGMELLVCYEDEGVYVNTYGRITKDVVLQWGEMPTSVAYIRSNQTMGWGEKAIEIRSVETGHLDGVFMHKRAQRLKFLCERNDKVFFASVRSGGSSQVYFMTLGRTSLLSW
The target in assay [8] is Mitogen-activated protein kinase 9 (Homo sapiens, UniProt P45984). Nature of the assay: Selectivity interaction (Kinase panel (Invitrogen)) EUB0000639a MAPK9. The conditions noted are these: at 200 nM.
Mitogen-activated protein kinase 9, sequence (P45984 whole entry, looked up): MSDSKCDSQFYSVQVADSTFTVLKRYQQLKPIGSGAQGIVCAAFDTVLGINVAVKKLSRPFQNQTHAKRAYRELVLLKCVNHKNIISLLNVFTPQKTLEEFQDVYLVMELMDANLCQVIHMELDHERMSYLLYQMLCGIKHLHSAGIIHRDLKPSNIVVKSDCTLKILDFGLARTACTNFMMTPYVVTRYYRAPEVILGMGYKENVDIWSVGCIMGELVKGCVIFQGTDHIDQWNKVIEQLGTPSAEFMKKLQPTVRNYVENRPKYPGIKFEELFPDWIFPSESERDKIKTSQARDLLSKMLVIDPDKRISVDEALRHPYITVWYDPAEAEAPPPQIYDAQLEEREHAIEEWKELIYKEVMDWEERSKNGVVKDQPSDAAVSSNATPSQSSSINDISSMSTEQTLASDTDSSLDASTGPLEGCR
The next assay has as its target Focal adhesion kinase 1 (Homo sapiens, UniProt Q05397). Briefly: Selectivity interaction (ActivX KiNativ screen (kinase selectivity in THP-1 cell lysates)) EUB0000639a PTK2. The conditions noted are these: lysate, at 1 µM. In kind it is subcellular.
Assay [9] concerns the target Tyrosine-protein kinase BTK (Homo sapiens, UniProt Q06187). Briefly: Selectivity interaction (ActivX KiNativ screen (kinase selectivity in THP-1 cell lysates)) EUB0000639a BTK. In kind it is subcellular. The conditions noted are these: lysate.
In assay [10] the target is Myosin light chain kinase, smooth muscle (Homo sapiens, UniProt Q15746). Briefly: Selectivity interaction (Kinase panel (literature)) EUB0001199aCl MYLK. The conditions noted are these: at 1 µM.
The target in assay [11] is T3, Myotonin-protein kinase (Homo sapiens) (UniProt Q09013).
T3 sequence (whole entry): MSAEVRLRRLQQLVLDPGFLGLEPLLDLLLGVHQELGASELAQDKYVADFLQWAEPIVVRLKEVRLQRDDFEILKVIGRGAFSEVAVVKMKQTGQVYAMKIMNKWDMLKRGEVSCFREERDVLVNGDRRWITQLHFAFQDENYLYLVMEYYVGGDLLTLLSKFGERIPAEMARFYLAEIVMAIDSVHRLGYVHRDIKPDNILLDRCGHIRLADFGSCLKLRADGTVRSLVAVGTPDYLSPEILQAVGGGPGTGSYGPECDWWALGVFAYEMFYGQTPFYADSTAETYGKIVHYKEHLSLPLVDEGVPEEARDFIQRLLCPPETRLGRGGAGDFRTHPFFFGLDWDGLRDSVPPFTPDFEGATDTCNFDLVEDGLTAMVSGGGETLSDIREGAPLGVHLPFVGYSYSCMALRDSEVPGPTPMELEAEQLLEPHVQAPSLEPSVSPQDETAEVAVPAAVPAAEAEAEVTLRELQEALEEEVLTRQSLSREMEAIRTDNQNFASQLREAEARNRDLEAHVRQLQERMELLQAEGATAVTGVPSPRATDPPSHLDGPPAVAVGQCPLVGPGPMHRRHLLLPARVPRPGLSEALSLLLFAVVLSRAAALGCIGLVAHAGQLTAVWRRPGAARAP
Briefly: Selectivity interaction (Upstate Kinase Profiler service (Millipore)) EUB0000056c DMPK. As to conditions: at 1 µM.

For assay [12], the target named is Serine/threonine-protein kinase Chk2 (Homo sapiens) (UniProt O96017). Briefly: Selectivity interaction (KinomeScan (DiscoverX)) EUB0000655a CHEK2. As to conditions: at 10 µM.
Serine/threonine-protein kinase Chk2 (Homo sapiens), sequence (O96017 whole entry): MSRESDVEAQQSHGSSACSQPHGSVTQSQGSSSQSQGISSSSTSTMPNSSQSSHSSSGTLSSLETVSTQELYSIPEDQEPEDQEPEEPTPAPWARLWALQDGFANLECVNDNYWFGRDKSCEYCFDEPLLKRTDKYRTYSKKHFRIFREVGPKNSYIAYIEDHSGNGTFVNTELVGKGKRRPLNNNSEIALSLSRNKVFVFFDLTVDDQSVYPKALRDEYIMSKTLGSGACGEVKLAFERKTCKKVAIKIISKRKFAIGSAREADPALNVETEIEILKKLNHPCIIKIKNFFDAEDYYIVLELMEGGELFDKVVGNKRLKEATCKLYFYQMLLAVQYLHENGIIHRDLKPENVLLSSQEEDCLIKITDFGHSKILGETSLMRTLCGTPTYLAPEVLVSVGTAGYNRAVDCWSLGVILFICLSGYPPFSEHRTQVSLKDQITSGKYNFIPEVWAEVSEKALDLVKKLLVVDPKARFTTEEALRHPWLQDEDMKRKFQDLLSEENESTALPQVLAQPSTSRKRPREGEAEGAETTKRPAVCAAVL
The target of assay [13] is Tyrosine-protein kinase BAZ1B (Homo sapiens) (UniProt Q9UIG0). Briefly: Selectivity interaction (Bromodomain panel (DSF asssay)) EUB0000270b BAZ1B.
For assay [14], the target named is Cyclin-dependent kinase 3 (Homo sapiens) (UniProt Q00526). Briefly: Selectivity interaction (KinomeScan (DiscoverX)) EUB0000618a CDK3. As to conditions: at 10 µM.
Cyclin-dependent kinase 3 (Homo sapiens), sequence (Q00526 whole entry, looked up): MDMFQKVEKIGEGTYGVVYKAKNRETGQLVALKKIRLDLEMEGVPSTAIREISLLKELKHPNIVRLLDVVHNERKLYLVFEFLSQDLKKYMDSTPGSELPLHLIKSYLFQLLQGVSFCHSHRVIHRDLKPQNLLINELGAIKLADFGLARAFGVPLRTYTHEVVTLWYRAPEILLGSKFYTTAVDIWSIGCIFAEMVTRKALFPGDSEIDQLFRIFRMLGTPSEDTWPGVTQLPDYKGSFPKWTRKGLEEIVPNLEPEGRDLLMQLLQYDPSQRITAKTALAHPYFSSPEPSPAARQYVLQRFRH
In assay [15] the target is Calcium/calmodulin-dependent protein kinase kinase 2 (Homo sapiens) (UniProt Q96RR4). Nature of the assay: Selectivity interaction (KinomeScan (DiscoverX)) EUB0000618a CAMKK2. As to conditions: at 10 µM.

Tyrosine-protein kinase BTK, sequence (Q06187 whole entry): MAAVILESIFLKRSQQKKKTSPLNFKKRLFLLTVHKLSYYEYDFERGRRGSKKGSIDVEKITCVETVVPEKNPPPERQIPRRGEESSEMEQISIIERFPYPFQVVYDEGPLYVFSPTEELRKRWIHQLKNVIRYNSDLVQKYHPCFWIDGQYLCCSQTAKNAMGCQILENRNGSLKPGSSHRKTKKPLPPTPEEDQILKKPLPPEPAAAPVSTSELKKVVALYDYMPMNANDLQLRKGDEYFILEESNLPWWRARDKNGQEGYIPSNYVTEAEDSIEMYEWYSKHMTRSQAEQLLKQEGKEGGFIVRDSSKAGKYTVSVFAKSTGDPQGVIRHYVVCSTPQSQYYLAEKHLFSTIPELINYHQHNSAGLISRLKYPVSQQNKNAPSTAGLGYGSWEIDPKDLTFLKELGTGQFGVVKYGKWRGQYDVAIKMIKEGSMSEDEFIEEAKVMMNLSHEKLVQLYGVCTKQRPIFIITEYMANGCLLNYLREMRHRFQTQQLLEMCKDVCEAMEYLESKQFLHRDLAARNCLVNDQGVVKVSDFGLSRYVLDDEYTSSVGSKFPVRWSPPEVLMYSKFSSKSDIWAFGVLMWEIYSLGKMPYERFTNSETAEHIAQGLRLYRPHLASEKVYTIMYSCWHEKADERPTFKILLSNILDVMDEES
Focal adhesion kinase 1, sequence (Q05397 2-1052 limits assumed): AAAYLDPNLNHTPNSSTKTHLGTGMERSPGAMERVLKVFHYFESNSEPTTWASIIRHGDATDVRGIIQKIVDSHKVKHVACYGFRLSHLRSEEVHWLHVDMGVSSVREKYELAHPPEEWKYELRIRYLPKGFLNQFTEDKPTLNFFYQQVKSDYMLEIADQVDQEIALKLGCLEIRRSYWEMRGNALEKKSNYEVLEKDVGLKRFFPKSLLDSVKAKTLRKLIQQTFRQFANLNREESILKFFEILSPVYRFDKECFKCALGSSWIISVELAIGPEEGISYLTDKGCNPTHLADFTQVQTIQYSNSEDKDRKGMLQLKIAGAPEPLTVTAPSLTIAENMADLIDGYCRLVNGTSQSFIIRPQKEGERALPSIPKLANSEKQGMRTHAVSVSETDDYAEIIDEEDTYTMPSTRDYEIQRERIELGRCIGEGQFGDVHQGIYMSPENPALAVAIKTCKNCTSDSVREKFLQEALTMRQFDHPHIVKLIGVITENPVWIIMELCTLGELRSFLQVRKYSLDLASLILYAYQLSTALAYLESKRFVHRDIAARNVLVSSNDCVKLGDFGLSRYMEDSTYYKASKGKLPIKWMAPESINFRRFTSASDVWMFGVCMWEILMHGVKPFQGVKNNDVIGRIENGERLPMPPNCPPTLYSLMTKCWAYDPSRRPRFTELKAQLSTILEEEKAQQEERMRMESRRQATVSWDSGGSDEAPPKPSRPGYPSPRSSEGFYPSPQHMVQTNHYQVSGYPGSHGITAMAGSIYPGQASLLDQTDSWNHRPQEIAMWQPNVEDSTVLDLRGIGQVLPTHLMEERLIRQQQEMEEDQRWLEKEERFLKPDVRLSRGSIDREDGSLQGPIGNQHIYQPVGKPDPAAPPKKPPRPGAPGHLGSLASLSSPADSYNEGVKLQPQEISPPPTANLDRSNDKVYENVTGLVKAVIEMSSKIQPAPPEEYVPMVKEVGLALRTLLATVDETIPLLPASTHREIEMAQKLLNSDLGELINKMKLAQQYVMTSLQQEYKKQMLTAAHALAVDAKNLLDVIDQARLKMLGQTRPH
Phosphatidylinositol 4-kinase beta, sequence (Q9UBF8 2-816 limits assumed): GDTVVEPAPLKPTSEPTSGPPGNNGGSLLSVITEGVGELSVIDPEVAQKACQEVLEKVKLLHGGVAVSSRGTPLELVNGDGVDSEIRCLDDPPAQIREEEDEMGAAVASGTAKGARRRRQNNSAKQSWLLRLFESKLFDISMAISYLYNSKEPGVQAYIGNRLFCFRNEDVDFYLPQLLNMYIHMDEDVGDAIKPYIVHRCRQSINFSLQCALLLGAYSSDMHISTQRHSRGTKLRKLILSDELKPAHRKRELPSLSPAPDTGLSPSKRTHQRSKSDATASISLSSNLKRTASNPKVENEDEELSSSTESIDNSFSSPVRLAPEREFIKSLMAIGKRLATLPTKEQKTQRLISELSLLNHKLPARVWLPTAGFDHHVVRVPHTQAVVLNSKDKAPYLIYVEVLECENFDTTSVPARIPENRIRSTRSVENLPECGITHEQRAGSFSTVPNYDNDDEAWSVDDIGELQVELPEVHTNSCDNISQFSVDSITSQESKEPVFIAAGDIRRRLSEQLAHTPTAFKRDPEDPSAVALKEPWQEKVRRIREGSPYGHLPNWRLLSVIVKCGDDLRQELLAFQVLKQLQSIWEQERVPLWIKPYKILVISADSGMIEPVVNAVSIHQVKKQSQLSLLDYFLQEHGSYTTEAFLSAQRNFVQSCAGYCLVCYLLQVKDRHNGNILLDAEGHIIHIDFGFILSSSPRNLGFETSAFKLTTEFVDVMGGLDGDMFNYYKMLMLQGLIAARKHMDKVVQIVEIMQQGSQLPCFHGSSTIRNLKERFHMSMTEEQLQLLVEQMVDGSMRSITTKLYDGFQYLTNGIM

As to `N#Cc1cccc(-c2c[nH]c3ncnc(N4CCOCC4)c23)c1`, the values for the % of inhibition in [1] and in assay [2] were -27% and -1%, respectively.

`O=C(NOC[C@H](O)CO)c1ccc(F)c(F)c1Nc1ccc(I)cc1F` gave a % of control in assay [3] of 81%.

With `CNC(=O)Nc1ccc(-c2nc(N3CC4CCC(C3)O4)c3cnn(C4CCC5(CC4)OCCO5)c3n2)cc1`, the % of control in [4] stood at 83%; in [5] it was 100%.

Regarding `Cc1cc([C@@H](C)Nc2ccccc2C(=O)O)c2nc(N3CCOCC3)cc(=O)n2c1` [AZD-6482], the % of control came to 100% in assay [6] and 97% in [7].

With `CC[C@@H]1[C@H](F)C(=O)N[C@@H]1COc1nccc2cc(C(N)=O)c(OC)cc12` [ZIMLOVISERTIB], the % of inhibition in assay [8] is 0.603%; at Focal adhesion kinase 1 it was -38.6%; in [9] (at 0.01 µM) it was -9.7%; in [9] (at 0.04 µM), -8.8%; in [9] (at 0.2 µM), 2.6%; in [9] (at 1 µM) it was 11.9%. Further, the % of inhibition in assay [9] (at 5 µM) is 0.7%.

As for `CN1Cc2nccc(-c3cn(C)nc3-c3ccc(F)cc3)c2C1=O`, in assay [10], the % of inhibition was found to be 4%.

On to `Cc1ccc(-c2ccc3c(ccc4sc5c(c43)NC[C@@H](C)NC5=O)n2)cn1`, for which, in [11], the % of inhibition is -8%.

The compound `CN(C)CCOc1ccc(-c2nc(-c3ccncc3)c(-c3ccc4c(c3)CC/C4=N\O)[nH]2)cc1` displayed a % of control in assay [12] of 100%.

Consider `Cc1cc(CN)cc(C)c1-c1ncn(C)c1-c1cncn1C`, for which the dTM in [13] was -1.22 K.

Turning to `O[C@H]1CC[C@H](Nc2ncc3nc(Nc4c(F)cc(F)cc4F)n([C@H]4CCOC4)c3n2)CC1`, the % of control in [14] is 100%; in [15] it was 94%.
